Measured values: patent US20240391940A1, “FUSED RING-CONTAINING COMPOUND, APPLICATION THEREOF, AND COMPOSITION CONTAINING SAME” (GenEros Biopharma Ltd., priority 2020, published 2024)

What was measured:
[1] = system: IMQ-induced psoriasis mouse model; assay: IMQ-induced psoriasis mouse model (PASI scoring); format: in vivo, Balb/c mice; conditions: IMQ-induced psoriasis mice; GEN1-284s 30 mg/kg PO qD
Experimental: Method: This experiment used a total of 19 mice. A natural skin observation control (n=1). 2 cm^2 of hair was shaved off the backs of […] on day 0, the stubble was removed with a mild depilatory cream, and the original skin was photographed. 62.5 mg of IMQ was applied to each of the mice. There was a mock group (n=6), a DEX (3 mg/kg, PO., qD) group (n=6), and a GEN1-284s (30 mg/kg, PO, qD) group (n=6). On the day of modeling, administration was performed in a volume of 100 μL/20 g body weight 4 h after IMQ application. The PASI scoring method was used to score the erythema, swelling and scaling on the skin of the mice. The experiment took a total of 6 days. The first day was set to day 0. IMQ application and administration were not performed on day 5. The mice were sacrificed with carbon dioxide at the end of the experiment.
The test animals were anesthetized with isoflurane. 2 cm^2 of hair was shaved off the backs of the mice, and the stubble was removed with a depilatory cream. IMQ application was performed for a total of 5 days, from day 0 to day 4. Scoring and IMQ application were performed every morning. Administration was performed in the afternoon
Desquamation (D): means epidermal cells flake off. The severity scores of skin lesions were as follows: • 0=none; this sign cannot be confirmed by careful observation • 1=mild; this sign can be confirmed but careful observation is required • 2=moderate; this sign is more visible and can be confirmed immediately • 3=severe; this sign is marked. • 4=very severe; this sign is very marked.
Induration I: 0—skin lesions are at the same level as normal skin; • 1—skin lesions are at slightly higher levels than normal skin surface; • 2—lesions moderately stick out and have round or slope-shaped borders; • 3—skin lesions are thick and markedly stick out; • 4—skin lesions are very thick and very markedly stick out.
Erythema E: • 0—no visible erythema; • 1—light red; • 2—red; • 3—dark red; • 4—the red is very dark

[2] = system: collagen-induced arthritis (CIA) mouse model; assay: Mouse CIA model, repeated for dose exploration (10, 30, 50 mg/kg)
Text: Testing was repeated for dose exploration
The above method was used.

[3] = CIA mice, GEN1-284s 10, 30 and 50 mg/kg qd po

O=C(Cc1ccc2ncccc2c1)N1CCC(n2c(=O)n(COP(=O)([O-])[O-])c3cccc(C(F)(F)F)c32)CC1.[Na+].[Na+] [GEN1-284 salt, (2-Oxo-3-(1-(2-(quinolin-6-yl)acetyl)piperidin-4-yl)-4-(trifluoromethyl)-2,3-dihydro-1H-benzo[d]imidazol-1-yl)methyl disodium phosphate]
Swelling of the skin [1]: partially ameliorate the psoriatic swelling
Effect on the score of arthritis [2, 3]: consistently and significantly inhibit the score of arthritis
Score of arthritis compared with the tofacitinib positive group [2, 3]: no significant difference from the tofacitinib positive group
Tolerance [2, 3]: good tolerance
Significance of clinical score vs. Vehicle group (Two-way ANOVA) ([2]; CIA mice, GEN1-284s 10 mpk, Day 35): ns
Significance of clinical score vs. Vehicle group (Two-way ANOVA) ([2]; CIA mice, GEN1-284s 10 mpk, Day 38): ns
Significance of clinical score vs. Vehicle group (Two-way ANOVA) ([2]; CIA mice, GEN1-284s 10 mpk, Day 40): ns
Significance of clinical score vs. Vehicle group (Two-way ANOVA) ([2]; CIA mice, GEN1-284s 10 mpk, Day 42): * (*P < 0.05)
Significance of clinical score vs. Vehicle group (Two-way ANOVA) ([2]; CIA mice, GEN1-284s 30 mpk, Day 35): ns
Significance of clinical score vs. Vehicle group (Two-way ANOVA) ([2]; CIA mice, GEN1-284s 30 mpk, Day 38): ** (**P < 0.01)
Significance of clinical score vs. Vehicle group (Two-way ANOVA) ([2]; CIA mice, GEN1-284s 30 mpk, Day 40): * (*P < 0.05)
Significance of clinical score vs. Vehicle group (Two-way ANOVA) ([2]; CIA mice, GEN1-284s 30 mpk, Day 42): * (*P < 0.05)
Significance of clinical score vs. Vehicle group (Two-way ANOVA) ([2]; CIA mice, GEN1-284s 50 mpk, Day 35): * (*P < 0.05)
Significance of clinical score vs. Vehicle group (Two-way ANOVA) ([2]; CIA mice, GEN1-284s 50 mpk, Day 38): ** (**P < 0.01)
Significance of clinical score vs. Vehicle group (Two-way ANOVA) ([2]; CIA mice, GEN1-284s 50 mpk, Day 40): ** (**P < 0.01)
Significance of clinical score vs. Vehicle group (Two-way ANOVA) ([2]; CIA mice, GEN1-284s 50 mpk, Day 42): ** (**P < 0.01)
Changes in body weight, Mean ± SEM ([2]; G3 GEN1-284s 10 mg/kg, Day 21): 20.64 ± 0.17
Clinical scores, Mean ± SEM ([2]; G3 GEN1-284s 10 mg/kg, Day 21): 0.0 ± 0.00
Changes in body weight, Mean ± SEM ([2]; G3 GEN1-284s 10 mg/kg, Day 24): 20.40 ± 0.28
Clinical scores, Mean ± SEM ([2]; G3 GEN1-284s 10 mg/kg, Day 24): 0.0 ± 0.00
Changes in body weight, Mean ± SEM ([2]; G3 GEN1-284s 10 mg/kg, Day 26): 20.19 ± 0.41
Clinical scores, Mean ± SEM ([2]; G3 GEN1-284s 10 mg/kg, Day 26): 0.3 ± 0.16
Changes in body weight, Mean ± SEM ([2]; G3 GEN1-284s 10 mg/kg, Day 28): 19.34 ± 0.52
Clinical scores, Mean ± SEM ([2]; G3 GEN1-284s 10 mg/kg, Day 28): 0.6 ± 0.18
Changes in body weight, Mean ± SEM ([2]; G3 GEN1-284s 10 mg/kg, Day 31): 18.89 ± 0.44
Clinical scores, Mean ± SEM ([2]; G3 GEN1-284s 10 mg/kg, Day 31): 2.5 ± 0.57
Changes in body weight, Mean ± SEM ([2]; G3 GEN1-284s 10 mg/kg, Day 33): 18.65 ± 0.48
Clinical scores, Mean ± SEM ([2]; G3 GEN1-284s 10 mg/kg, Day 33): 4.1 ± 0.99
Changes in body weight, Mean ± SEM ([2]; G3 GEN1-284s 10 mg/kg, Day 35): 19.04 ± 0.47
Clinical scores, Mean ± SEM ([2]; G3 GEN1-284s 10 mg/kg, Day 35): 5.6 ± 1.29
Changes in body weight, Mean ± SEM ([2]; G3 GEN1-284s 10 mg/kg, Day 38): 19.54 ± 0.38
Clinical scores, Mean ± SEM ([2]; G3 GEN1-284s 10 mg/kg, Day 38): 6.9 ± 1.55
Changes in body weight, Mean ± SEM ([2]; G3 GEN1-284s 10 mg/kg, Day 40): 19.85 ± 0.28
Clinical scores, Mean ± SEM ([2]; G3 GEN1-284s 10 mg/kg, Day 40): 7.5 ± 1.69
Changes in body weight, Mean ± SEM ([2]; G3 GEN1-284s 10 mg/kg, Day 42): 19.90 ± 0.31
Clinical scores, Mean ± SEM ([2]; G3 GEN1-284s 10 mg/kg, Day 42): 7.9 ± 1.79
Clinical scores: significance vs. solvent control group, two-way ANOVA ([2]; G3 GEN1-284s 10 mg/kg, Day 42): * (* p <0.05)
Changes in body weight, Mean ± SEM ([2]; G4 GEN1-284s 30 mg/kg, Day 21): 20.25 ± 0.34
Clinical scores, Mean ± SEM ([2]; G4 GEN1-284s 30 mg/kg, Day 21): 0.0 ± 0.00
Changes in body weight, Mean ± SEM ([2]; G4 GEN1-284s 30 mg/kg, Day 24): 19.74 ± 0.33
Clinical scores, Mean ± SEM ([2]; G4 GEN1-284s 30 mg/kg, Day 24): 0.0 ± 0.00
Changes in body weight, Mean ± SEM ([2]; G4 GEN1-284s 30 mg/kg, Day 26): 19.79 ± 0.34
Clinical scores, Mean ± SEM ([2]; G4 GEN1-284s 30 mg/kg, Day 26): 0.3 ± 0.16
Changes in body weight, Mean ± SEM ([2]; G4 GEN1-284s 30 mg/kg, Day 28): 19.48 ± 0.54
Clinical scores, Mean ± SEM ([2]; G4 GEN1-284s 30 mg/kg, Day 28): 0.6 ± 0.18
Changes in body weight, Mean ± SEM ([2]; G4 GEN1-284s 30 mg/kg, Day 31): 19.20 ± 0.56
Clinical scores, Mean ± SEM ([2]; G4 GEN1-284s 30 mg/kg, Day 31): 2.1 ± 0.69
Changes in body weight, Mean ± SEM ([2]; G4 GEN1-284s 30 mg/kg, Day 33): 19.50 ± 0.61
Clinical scores, Mean ± SEM ([2]; G4 GEN1-284s 30 mg/kg, Day 33): 3.6 ± 1.13
Changes in body weight, Mean ± SEM ([2]; G4 GEN1-284s 30 mg/kg, Day 35): 19.68 ± 0.61
Clinical scores, Mean ± SEM ([2]; G4 GEN1-284s 30 mg/kg, Day 35): 5.1 ± 1.25
Changes in body weight, Mean ± SEM ([2]; G4 GEN1-284s 30 mg/kg, Day 38): 19.46 ± 0.56
Clinical scores, Mean ± SEM ([2]; G4 GEN1-284s 30 mg/kg, Day 38): 6.0 ± 1.40
Clinical scores: significance vs. solvent control group, two-way ANOVA ([2]; G4 GEN1-284s 30 mg/kg, Day 38): ** (** p < 0.01)
Changes in body weight, Mean ± SEM ([2]; G4 GEN1-284s 30 mg/kg, Day 40): 20.06 ± 0.53
Clinical scores, Mean ± SEM ([2]; G4 GEN1-284s 30 mg/kg, Day 40): 6.9 ± 1.53
Clinical scores: significance vs. solvent control group, two-way ANOVA ([2]; G4 GEN1-284s 30 mg/kg, Day 40): * (* p <0.05)
Changes in body weight, Mean ± SEM ([2]; G4 GEN1-284s 30 mg/kg, Day 42): 19.78 ± 0.44
Clinical scores, Mean ± SEM ([2]; G4 GEN1-284s 30 mg/kg, Day 42): 8.1 ± 1.26
Clinical scores: significance vs. solvent control group, two-way ANOVA ([2]; G4 GEN1-284s 30 mg/kg, Day 42): * (* p <0.05)
Changes in body weight, Mean ± SEM ([2]; G5 GEN1-284s 50 mg/kg, Day 21): 20.44 ± 0.30
Clinical scores, Mean ± SEM ([2]; G5 GEN1-284s 50 mg/kg, Day 21): 0.0 ± 0.00
Changes in body weight, Mean ± SEM ([2]; G5 GEN1-284s 50 mg/kg, Day 24): 19.66 ± 0.23
Clinical scores, Mean ± SEM ([2]; G5 GEN1-284s 50 mg/kg, Day 24): 0.0 ± 0.00
Changes in body weight, Mean ± SEM ([2]; G5 GEN1-284s 50 mg/kg, Day 26): 19.70 ± 0.26
Clinical scores, Mean ± SEM ([2]; G5 GEN1-284s 50 mg/kg, Day 26): 0.4 ± 0.18
Changes in body weight, Mean ± SEM ([2]; G5 GEN1-284s 50 mg/kg, Day 28): 19.60 ± 0.43
Clinical scores, Mean ± SEM ([2]; G5 GEN1-284s 50 mg/kg, Day 28): 0.6 ± 0.18
Changes in body weight, Mean ± SEM ([2]; G5 GEN1-284s 50 mg/kg, Day 31): 18.88 ± 0.52
Clinical scores, Mean ± SEM ([2]; G5 GEN1-284s 50 mg/kg, Day 31): 1.9 ± 0.67
Changes in body weight, Mean ± SEM ([2]; G5 GEN1-284s 50 mg/kg, Day 33): 18.91 ± 0.59
Clinical scores, Mean ± SEM ([2]; G5 GEN1-284s 50 mg/kg, Day 33): 3.4 ± 1.15
Changes in body weight, Mean ± SEM ([2]; G5 GEN1-284s 50 mg/kg, Day 35): 19.09 ± 0.53
Clinical scores, Mean ± SEM ([2]; G5 GEN1-284s 50 mg/kg, Day 35): 4.8 ± 1.36
Clinical scores: significance vs. solvent control group, two-way ANOVA ([2]; G5 GEN1-284s 50 mg/kg, Day 35): * (* p <0.05)
Changes in body weight, Mean ± SEM ([2]; G5 GEN1-284s 50 mg/kg, Day 38): 19.10 ± 0.52
Clinical scores, Mean ± SEM ([2]; G5 GEN1-284s 50 mg/kg, Day 38): 5.9 ± 1.54
Clinical scores: significance vs. solvent control group, two-way ANOVA ([2]; G5 GEN1-284s 50 mg/kg, Day 38): ** (** p < 0.01)
Changes in body weight, Mean ± SEM ([2]; G5 GEN1-284s 50 mg/kg, Day 40): 19.31 ± 0.43
Clinical scores, Mean ± SEM ([2]; G5 GEN1-284s 50 mg/kg, Day 40): 6.6 ± 1.60
Clinical scores: significance vs. solvent control group, two-way ANOVA ([2]; G5 GEN1-284s 50 mg/kg, Day 40): ** (** p < 0.01)
Changes in body weight, Mean ± SEM ([2]; G5 GEN1-284s 50 mg/kg, Day 42): 19.39 ± 0.39
Clinical scores, Mean ± SEM ([2]; G5 GEN1-284s 50 mg/kg, Day 42): 6.9 ± 1.55
Clinical scores: significance vs. solvent control group, two-way ANOVA ([2]; G5 GEN1-284s 50 mg/kg, Day 42): ** (** p < 0.01)
